According to patent publication US20240228506A1, “RIPK1 INHIBITORS AND METHODS OF USE” (Merck Sharp & Dohme LLC, priority 2021, published 2024):

Molecular target: T1, GST-RIPK1 (recombinant GST-RIPK1 kinase domain (residues 1-327)) (Homo sapiens, UniProt Q13546)
T1 construct: recombinant GST-RIPK1 kinase domain (residues 1-327) enzyme; made in house; host or cells: baculovirus-transfected Sf21 insect cells
T1 sequence (Q13546 1-327): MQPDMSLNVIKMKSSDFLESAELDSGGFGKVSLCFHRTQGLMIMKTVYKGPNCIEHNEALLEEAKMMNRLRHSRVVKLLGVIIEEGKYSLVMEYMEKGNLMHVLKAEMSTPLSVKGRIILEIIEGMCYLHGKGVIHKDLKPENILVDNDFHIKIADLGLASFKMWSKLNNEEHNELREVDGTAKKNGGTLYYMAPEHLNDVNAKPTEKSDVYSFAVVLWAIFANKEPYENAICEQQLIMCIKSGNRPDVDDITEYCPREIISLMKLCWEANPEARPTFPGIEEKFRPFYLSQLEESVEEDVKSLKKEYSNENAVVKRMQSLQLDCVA
Assay: RIPK1-ADP-Glo enzymatic assay
Assay type: biochemical
Details: 25 nM GST-RIPK1, 300 μM ATP, 3 μM dephosphorylated-MBP; 30 minutes pre-incubation, 150 minutes reaction; ten-point titration
Method in brief: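 Ten-point 1:3 titrations from 100000 nM, 1% DMSO, were preincubated 30 min with 25 nM GST-RIPK1 (1-327) before starting with 300 μM ATP plus 3 μM dephosphorylated MBP; 150 min reaction. ADP-Glo luminescence measured ATP-to-ADP conversion; EC50 by four-parameter sigmoidal regression.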

SMILES	IC50
O=C(N1C[C@@H]2C[C@H]1c1cncc(C#Cc3ncccn3)c1O2)C12CCC(C(F)(F)F)(CC1)C2 [Compound 2-68, ((2S,5S)-9-(pyrimidin-2-ylethynyl)-2,3-dihydro-2,5-methanopyrido[3,4-f][1,4]oxazepin-4(5H)-yl)(4-(trifluoromethyl)bicyclo [2.2.1]heptan-1-yl)methanone]	134 nM
COc1ccnc(C#Cc2cncc3c2O[C@H]2C[C@@H]3N(C(=O)C34CCC(C(F)(F)F)(CC3)C4)C2)c1 [Compound 2-69, ((2S,5S)-9-((4-methoxypyridin-2-yl)ethynyl)-2,3-dihydro-2,5-methanopyrido[3,4-f][1,4]oxazepin-4(5H)-yl)(4-(trifluoromethyl)bicyclo [2.2.1]heptan-1-yl)methanone]	41 nM
COc1ccccc1C#Cc1cncc2c1O[C@H]1C[C@@H]2N(C(=O)C23CCC(C(F)(F)F)(CC2)C3)C1 [Compound 2-70, ((2S,5S)-9-((2-methoxyphenyl)ethynyl)-2,3-dihydro-2,5-methanopyrido[3,4-f][1,4]oxazepin-4(5H)-yl)(4-(trifluoromethyl)bicyclo [2.2.1]heptan-1-yl)methanone]	72 nM
Cc1nnc(C#Cc2cncc3c2O[C@H]2C[C@@H]3N(C(=O)C(C)(C)C(F)F)C2)o1 [Compound 2-71, 3,3-Difluoro-2,2-dimethyl-1-((2S,5S)-9-((5-methyl-1,3,4-oxadiazol-2-yl)ethynyl)-2,3-dihydro-2,5-methanopyrido[3,4-f][1,4]oxazepin-4(5H)-yl)propan-1-one]	89 nM
CC(C)(C(=O)N1C[C@@H]2C[C@H]1c1cncc(C#Cc3ncco3)c1O2)C(F)F [Compound 2-72]	68 nM
CC(C)(C(=O)N1C[C@@H]2C[C@H]1c1cncc(C#Cc3cnc(C(F)(F)F)nc3)c1O2)C(F)F [Compound 2-77, 3,3-difluoro-2,2-dimethyl-1-((2S,5S)-9-((2-(trifluoromethyl)pyrimidin-5-yl)ethynyl)-2,3-dihydro-2,5-methanopyrido[3,4-f][1,4]oxazepin-4(5H)-yl)propan-1-one]	49 nM
CC(C)(C(=O)N1C[C@@H]2C[C@H]1c1cncc(C#Cc3cnc4ncnn4c3)c1O2)C(F)F [Compound 2-79, 1-((2S,5S)-9-([1,2,4]triazolo[1,5-a]pyrimidin-6-ylethynyl)-2,3-dihydro-2,5-methanopyrido[3,4-f][1,4]oxazepin-4(5H)-yl)-3,3-difluoro-2,2-dimethylpropan-1-one]	72 nM
Cc1ncccc1C#Cc1cncc2c1O[C@H]1C[C@@H]2N(C(=O)C(C)(C)C(F)F)C1 [Compound 2-82, 3,3-difluoro-2,2-dimethyl-1-((2S,5S)-9-((2-methylpyridin-3-yl)ethynyl)-2,3-dihydro-2,5-methanopyrido[3,4-f][1,4]oxazepin-4(5H)-yl)propan-1-one]	66 nM
CC(C)(C(=O)N1C[C@@H]2C[C@H]1c1cncc(C#Cc3cncc(C#N)c3)c1O2)C(F)F [Compound 2-85, 5-(((2S,5S)-4-(3,3-difluoro-2,2-dimethylpropanoyl)-2,3,4,5-tetrahydro-2,5-methanopyrido[3,4-f][1,4]oxazepin-9-yl)ethynyl)nicotinonitrile]	38 nM
CC(C)(C(=O)N1C[C@@H]2C[C@H]1c1cncc(C#Cc3ccc(OC(F)F)nc3)c1O2)C(F)F [Compound 2-88, 1-((2S,5S)-9-((6-(difluoromethoxy)pyridin-3-yl)ethynyl)-2,3-dihydro-2,5-methanopyrido[3,4-f][1,4]oxazepin-4(5H)-yl)-3,3-difluoro-2,2-dimethylpropan-1-one]	35 nM
CC(C)(C(=O)N1C[C@@H]2C[C@H]1c1cncc(C#Cc3cncc(C(F)(F)F)c3)c1O2)C(F)F [Compound 2-89, 3,3-difluoro-2,2-dimethyl-1-((2S,5S)-9-((5-(trifluoromethyl)pyridin-3-yl)ethynyl)-2,3-dihydro-2,5-methanopyrido[3,4-f][1,4]oxazepin-4(5H)-yl)propan-1-one]	34 nM
Cc1ccc(C#Cc2cncc3c2O[C@H]2C[C@@H]3N(C(=O)C(C)(C)C(F)F)C2)c(C)n1 [Compound 2-91, 1-((2S,5S)-9-((2,6-dimethylpyridin-3-yl)ethynyl)-2,3-dihydro-2,5-methanopyrido[3,4-f][1,4]oxazepin-4(5H)-yl)-3,3-difluoro-2,2-dimethylpropan-1-one]	65 nM

The next compounds have a lower IC50 than those just listed; values first:

IC50	SMILES
32 nM	O=C(N1C[C@@H]2C[C@H]1c1cncc(C#Cc3ccncn3)c1O2)C12CCC(C(F)(F)F)(CC1)C2 [Compound 2-67, ((2S,5S)-9-(pyrimidin-4-ylethynyl)-2,3-dihydro-2,5-methanopyrido[3,4-f][1,4]oxazepin-4(5H)-yl)(4-(trifluoromethyl)bicyclo [2.2.1]heptan-1-yl)methanone]
19 nM	CC(C)(C)c1ncc(C#Cc2cncc3c2O[C@H]2C[C@@H]3N(C(=O)C(C)(C)C(F)F)C2)cn1 [Compound 2-73, 1-((2S,5S)-9-((2-(tert-butyl)pyrimidin-5-yl)ethynyl)-2,3-dihydro-2,5-methanopyrido[3,4-f][1,4]oxazepin-4(5H)-yl)-3,3-difluoro-2,2-dimethylpropan-1-one]
18 nM	CC(C)Oc1ncc(C#Cc2cncc3c2O[C@H]2C[C@@H]3N(C(=O)C(C)(C)C(F)F)C2)cn1 [Compound 2-74, 3,3-difluoro-1-((2S,5S)-9-((2-isopropoxypyrimidin-5-yl)ethynyl)-2,3-dihydro-2,5-methanopyrido[3,4-f][1,4]oxazepin-4(5H)-yl)-2,2-dimethylpropan-1-one]
27 nM	CC(C)(C(=O)N1C[C@@H]2C[C@H]1c1cncc(C#Cc3cnc4ccnn4c3)c1O2)C(F)F [Compound 2-75, 3,3-difluoro-2,2-dimethyl-1-((2S,5S)-9-(pyrazolo[1,5-a]pyrimidin-6-ylethynyl)-2,3-dihydro-2,5-methanopyrido[3,4-f][1,4]oxazepin-4(5H)-yl)propan-1-one]
33 nM	Cc1ncc(C#Cc2cncc3c2O[C@H]2C[C@@H]3N(C(=O)C(C)(C)C(F)F)C2)cn1 [Compound 2-76, 3,3-difluoro-2,2-dimethyl-1-((2S,5S)-9-((2-methylpyrimidin-5-yl)ethynyl)-2,3-dihydro-2,5-methanopyrido[3,4-f][1,4]oxazepin-4(5H)-yl)propan-1-one]
19 nM	CC(C)(C(=O)N1C[C@@H]2C[C@H]1c1cncc(C#Cc3cnc(C#N)nc3)c1O2)C(F)F [Compound 2-78, 5-(((2S,5S)-4-(3,3-difluoro-2,2-dimethylpropanoyl)-2,3,4,5-tetrahydro-2,5-methanopyrido[3,4-f][1,4]oxazepin-9-yl)ethynyl)pyrimidine-2-carbonitrile]
24 nM	CC(C)(C(=O)N1C[C@@H]2C[C@H]1c1cncc(C#Cc3cnc(C4CC4)nc3)c1O2)C(F)F [Compound 2-80, 1-((2S,5S)-9-((2-cyclopropylpyrimidin-5-yl)ethynyl)-2,3-dihydro-2,5-methanopyrido[3,4-f][1,4]oxazepin-4(5H)-yl)-3,3-difluoro-2,2-dimethylpropan-1-one]
22 nM	CC(C)(C(=O)N1C[C@@H]2C[C@H]1c1cncc(C#Cc3cnc4c(Cl)cnn4c3)c1O2)C(F)F [Compound 2-81, 1-((2S,5S)-9-((3-chloropyrazolo[1,5-a]pyrimidin-6-yl)ethynyl)-2,3-dihydro-2,5-methanopyrido[3,4-f][1,4]oxazepin-4(5H)-yl)-3,3-difluoro-2,2-dimethylpropan-1-one]
24 nM	CC(C)(C(=O)N1C[C@@H]2C[C@H]1c1cncc(C#Cc3ccc(C4CC4)nc3)c1O2)C(F)F [Compound 2-83, 1-((2S,5S)-9-((6-cyclopropylpyridin-3-yl)ethynyl)-2,3-dihydro-2,5-methanopyrido[3,4-f][1,4]oxazepin-4(5H)-yl)-3,3-difluoro-2,2-dimethylpropan-1-one]
26 nM	CC(C)(C(=O)N1C[C@@H]2C[C@H]1c1cncc(C#Cc3ccc(C(F)F)nc3)c1O2)C(F)F [Compound 2-84, 1-((2S,5S)-9-((6-(difluoromethyl)pyridin-3-yl)ethynyl)-2,3-dihydro-2,5-methanopyrido[3,4-f][1,4]oxazepin-4(5H)-yl)-3,3-difluoro-2,2-dimethylpropan-1-one]
31 nM	CC(C)(C(=O)N1C[C@@H]2C[C@H]1c1cncc(C#Cc3ccc(C(F)(F)F)nc3)c1O2)C(F)F [Compound 2-86, 3,3-difluoro-2,2-dimethyl-1-((2S,5S)-9-((6-(trifluoromethyl)pyridin-3-yl)ethynyl)-2,3-dihydro-2,5-methanopyrido[3,4-f][1,4]oxazepin-4(5H)-yl)propan-1-one]
32 nM	CC(C)(C(=O)N1C[C@@H]2C[C@H]1c1cncc(C#Cc3ccc(C#N)nc3)c1O2)C(F)F [Compound 2-87, 5-(((2S,5S)-4-(3,3-difluoro-2,2-dimethylpropanoyl)-2,3,4,5-tetrahydro-2,5-methanopyrido[3,4-f][1,4]oxazepin-9-yl)ethynyl)picolinonitrile]
28 nM	CC(C)(C(=O)N1C[C@@H]2C[C@H]1c1cncc(C#Cc3cncc(Cl)c3)c1O2)C(F)F [Compound 2-90, 1-((2S,5S)-9-((5-chloropyridin-3-yl)ethynyl)-2,3-dihydro-2,5-methanopyrido[3,4-f][1,4]oxazepin-4(5H)-yl)-3,3-difluoro-2,2-dimethylpropan-1-one]
